Reference: article PMC7618597, “Dual Nurr1/RXR agonism of valerenic acid and synthetic mimetics enables dimer-selective Nurr1 modulation” (ACS medicinal chemistry letters, 2025)

Target: Nurr1:RXR heterodimer (Homo sapiens, UniProt P19793+P43354)
Assay: Nurr1 LBD:RXRα LBD heterodimerization assay (HTRF)
Type: biochemical
Conditions: 30 μM, Tb3+-cryptate Nurr1 LBD and sGFP-RXRα LBD
Description: To determine the molecular response of the Nurr1:RXR heterodimer on dual agonist binding, we employed homogenous time-resolved fluorescence resonance energy transfer (HTRF) based assays with labeled Nurr1 and RXR LBD proteins. Tb^3+-cryptate as streptavidin conjugate served as FRET donor and was coupled to biotinylated proteins. sGFP fusion proteins of the receptors of interest were used as FRET acceptors. Ligand effects on dimer formation were determined by titrating the sGFP-labeled dimer partner with a fixed concentration of the Tb^3+-labeled counterpart. […] The same effect was also observable for the natural product 1 (Figure S3).
Nurr1 dimerization assays (HTRF). Modulation of Nurr1 LBD homodimerization and heterodimerization of the LDBs of Nurr1 and RXRα was investigated by HTRF as reported previously4. Nurr1 LBD or RXRα LBD proteins labeled with sGFP were titrated against a fixed concentration of Tb3+-cryptate as streptavidin conjugate (Tb-SA) (610SATLF, Revvity) coupled to biotinylated Nurr1 LBD protein in the presence of test compounds at 30 µM or absence of compound as a negative control (apo). Assay solutions were prepared in buffer containing 25 mM HEPES pH 7.5, 150 mM KF, 5% (m/v) glycerol, 5 mM DTT, 0.1% (m/v) CHAPS and 1%
DMSO. The FRET donor complex was formed from biotinylated Nurr1 LBD (final concentration 0.188 nM) and Tb-SA (0.375 nM) and was kept constant. For the homodimerization assay, the FRET acceptor consisted of sGFP-Nurr1 LBD, which was titrated from 0.5 µM, while free sGFP was added to keep the total GFP content stable at 0.5 µM. […] Samples were equilibrated at room temperature for 2 h and fluorescence intensities (FI) after excitation at 340 nm were recorded at 520 nm for sGFP acceptor fluorescence and at 620 for Tb-SA donor fluorescence on a SPARK plate reader (Tecan Group Ltd.). […]
Evaluation of Nurr1-regulated gene expression. […] RNA concentration and purity were assessed using a NanoDrop One UV-vis spectrophotometer (Thermo Fisher Scientific) at 260/280 nm. […]

Sequence of Nurr1:RXR heterodimer (P43354 360-595 limits assumed): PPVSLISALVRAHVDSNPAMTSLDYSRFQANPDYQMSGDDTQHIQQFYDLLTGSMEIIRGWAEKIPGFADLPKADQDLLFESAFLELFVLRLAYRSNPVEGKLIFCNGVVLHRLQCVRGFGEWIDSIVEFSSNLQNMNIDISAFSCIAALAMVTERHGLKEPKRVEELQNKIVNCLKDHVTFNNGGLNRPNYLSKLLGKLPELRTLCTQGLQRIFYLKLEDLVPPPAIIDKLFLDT
Sequence of Nurr1:RXR heterodimer (P19793 227-458 limits assumed): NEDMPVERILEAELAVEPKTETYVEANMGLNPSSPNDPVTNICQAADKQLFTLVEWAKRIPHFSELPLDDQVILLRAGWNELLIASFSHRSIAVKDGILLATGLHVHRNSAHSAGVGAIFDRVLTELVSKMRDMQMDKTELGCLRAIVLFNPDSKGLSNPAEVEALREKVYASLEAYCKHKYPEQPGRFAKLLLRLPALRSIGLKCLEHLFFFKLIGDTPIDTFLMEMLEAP

Row | SMILES | Nurr1:RXR heterodimer formation
1 | Cc1c(C)n(-c2ccc(CC(=O)O)cc2)c2ccc(F)cc12 [compound 3] | left the dimer intact
2 | Cc1c2c(n(-c3ccc(CC(=O)O)cc3)c1C)CCC(F)(F)C2 [compound 2] | left the dimer intact
